Molecular target: T1, TRPV-1 (Rattus norvegicus, UniProt O35433)
T1 construct: host or cells: PC 12 cells
Assay: Capsaicin induced TRPV-1 mediated calcium flux assay (Fura-2AM) in PC 12 cells
Type: cell-based
Method: (§1) Briefly, Ca^2+ influx was used as a measure of TRPV-1 activity. PC 12 cells (ATCC CRL-1721) were pre-incubated for 4 hours at 37° C. with the respective noted compounds (e.g., plankton extract (test), or capsazepine (positive control)). Following pre-incubation, treatment media was removed and cells were incubated with 100 μl of 0.67 μM Fura-2-acetoxymethyl ester ((Fura-2AM), a high affinity, intracellular calcium indicator that is ratiometric and UV light—excitable) for 1 hour at 37° C. After incubation, cells were treated with 200 μM of capsaicin to induce TRPV-1 mediated Ca^2+ flux response and fluorescence readings were taken every 7 seconds for 10 minutes at 360/460 nm. Data was normalized to controls, plotted as shown, and area under the curve (AUC) values were determined (see Table 2).
as §1, with “test compounds.” for “noted compounds (e.g., plankton extract (test), or capsazepine (positive control)).”, “Fura-2AM” for “Fura-2-acetoxymethyl ester ((Fura-2AM), a high affinity, intracellular calcium indicator that is ratiometric and UV light—excitable)”, “AUC” for “area under the curve (AUC)”
Ingredient samples were analyzed for their ability to inhibit calcium flux production in PC 12 cells (ATCC CRL-1721). PC 12 cells were maintained and passaged according to the manufacturer's recommended guidelines. For experiments, 1×10^5 cells/well were plated in 96 well black flat bottom plates. Fura-2-Acetoxymethyl ester (Fura-2AM) calcium detection assay kit (Cayman Chemical #14591) was used to detect calcium in the cells post treatment. Capsaicin (Sigma #M202) was used to trigger a response, and capsazepine (Sigma #C191) was used as a positive control. In brief, Ca2^+ influx was used as a measure of TRPV-1 activity. PC 12 cells (ATCC CRL-1721) were pre-incubated for 4 hours at 37° C. with the respective test compounds. Following pre-incubation, treatment media was removed and cells were incubated with 100 μl of 0.67 μM Fura-2AM for 1 hour at 37° C. After incubation, cells were treated with 200μM of capsaicin to induce TRPV-1 mediated Ca^2+ flux response and fluorescence readings were taken every 7 seconds for 10 minutes at 360/460 nm. Following the test period, buffer was removed and 100 μl diluted MTS reagent was added to each well. Cells were incubated for 15 to 30 minutes at 37° C. 5% CO2, and plates were then read at 490 nm. Cell viability was assessed prior to analyzing for calcium flux.
Fluorescence test data was normalized to controls to generate area under the curve (AUC) values. For each control and test, fluorescence arbitrary units (AU) were normalized to controls for timepoints 0, and 0.5-9 minutes. The normalized data was plotted on an XY graph using GraphPad Prism software to generate a calcium flux curve, with time on the X axis, and normalized AU on the Y axis. The AUC was then calculated for the untreated control, and net AUC was determined for each test and control condition.

[1] = 400 μM, pre-incubation 4 hours, then 200 μM capsaicin, positive control

T1 sequence (O35433 whole entry): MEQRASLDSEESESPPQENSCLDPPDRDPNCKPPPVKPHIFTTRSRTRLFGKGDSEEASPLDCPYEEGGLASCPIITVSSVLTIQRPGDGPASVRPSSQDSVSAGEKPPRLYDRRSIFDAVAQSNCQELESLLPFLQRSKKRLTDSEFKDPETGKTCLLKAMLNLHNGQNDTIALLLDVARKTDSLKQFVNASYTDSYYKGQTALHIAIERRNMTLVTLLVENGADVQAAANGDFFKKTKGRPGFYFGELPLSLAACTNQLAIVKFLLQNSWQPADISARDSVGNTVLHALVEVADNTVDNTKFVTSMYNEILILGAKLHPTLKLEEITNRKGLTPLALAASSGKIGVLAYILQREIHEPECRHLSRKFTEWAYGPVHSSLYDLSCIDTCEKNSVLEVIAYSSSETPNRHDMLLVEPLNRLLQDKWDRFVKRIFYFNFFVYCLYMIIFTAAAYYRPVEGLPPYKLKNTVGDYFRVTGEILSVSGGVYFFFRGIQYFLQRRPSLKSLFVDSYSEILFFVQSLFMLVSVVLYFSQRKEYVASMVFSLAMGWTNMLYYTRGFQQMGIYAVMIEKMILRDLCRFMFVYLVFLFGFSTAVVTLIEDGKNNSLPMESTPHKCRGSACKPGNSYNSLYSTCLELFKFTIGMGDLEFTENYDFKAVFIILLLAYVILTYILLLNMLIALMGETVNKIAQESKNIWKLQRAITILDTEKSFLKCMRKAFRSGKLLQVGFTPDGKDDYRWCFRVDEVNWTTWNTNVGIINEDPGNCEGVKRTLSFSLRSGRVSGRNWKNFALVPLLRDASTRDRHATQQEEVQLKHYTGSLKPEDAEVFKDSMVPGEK

COc1cc(CNC(=O)CCCC/C=C/C(C)C)ccc1O [Capsaicin]
Delta compared to untreated (200 μM, net AUC vs untreated baseline 9.009, negative control): 0.944 | AUC (200 μM, normalized Ca2+ flux curve, PC 12 cells, negative control): 9.953 | Percentage activity compared to positive control (200 μM, relative to capsazepine 400 μM, negative control): −453.56%

Oc1cc2c(cc1O)CN(C(=S)NCCc1ccc(Cl)cc1)CCC2 [Capsazepine, capsazepine]
AUC [1]: 8.742 | Delta compared to untreated [1]: −0.267 | Percentage activity compared to positive control (400 μM, the positive control itself): NA (0) %

Reference: patent publication US12653774B2, “Topical compositions and methods for using same” (MARY KAY INC., priority 2022, dated 2026)
